The source of these data is US5753673A, “Quinolinecarboxylic acid derivatives” (Taisho Pharmaceutical Co., Ltd., priority 1994, dated 1998).

Assay [1] addresses T1, serotonin 4 receptor (5-HT4) (Cavia porcellus, UniProt O70528).
T1 construct: from tissue; host or cells: longitudinal muscle strips of guinea pig ileum (Harley guinea pigs)
Briefly: Stimulating activity on serotonin 4 receptor (twitch response in guinea pig ileum). It counts as cell-based.

The target of a further assay is T2, 5-HT4 receptor (Cavia porcellus, UniProt O70528).
T2 construct: The longitudinal muscle strip from guinea pig was homogenized; from tissue; host or cells: membranes of guinea pig ileum longitudinal muscle strip
T2 sequence (O70528 whole entry): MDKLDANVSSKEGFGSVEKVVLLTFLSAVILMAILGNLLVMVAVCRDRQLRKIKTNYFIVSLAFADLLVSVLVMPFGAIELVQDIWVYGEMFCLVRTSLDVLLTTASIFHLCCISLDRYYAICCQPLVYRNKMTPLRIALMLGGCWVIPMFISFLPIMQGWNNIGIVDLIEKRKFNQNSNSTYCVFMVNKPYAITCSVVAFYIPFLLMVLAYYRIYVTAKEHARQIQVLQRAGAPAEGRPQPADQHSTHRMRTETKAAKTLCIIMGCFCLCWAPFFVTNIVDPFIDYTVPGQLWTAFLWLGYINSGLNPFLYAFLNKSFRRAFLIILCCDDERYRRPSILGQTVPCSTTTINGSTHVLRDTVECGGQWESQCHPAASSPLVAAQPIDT
Briefly: Inhibition of 5-HT4 receptor-binding ([^3 H]GR113808 binding in guinea pig ileum). The procedure: Effect on inhibition of 5-HT4 receptor-binding
The effect on inhibition of 5-HT4 receptor-binding of the quinolinecarboxylic acid derivatives of the present invention was examined according to the method described in GROSSMAN et al., Br. J. Pharmacol., 109, 618 (1993).
The longitudinal muscle strip from guinea pig was homogenized in 0.32M sucrose with a Teflon-glass homogenizer. After centrifugation at 900 G for 10 minutes, the upper fraction of lipids and precipitates was discarded and the supernatant was centrifuged at 100,000 G (48,000 rpm) for an hour. The pellet was resuspended in 50 mM HEPES buffer. After incubation at 37° C. for 30 minutes, the suspension was centrifuged at 48,000 rpm for 20 minutes. The pellet was suspended in HEPES buffer supplemented with 10^-6 M pargyline and 0.1% ascorbic acid. The suspension was used for the binding assay.
Non-specific binding was defined as that taken in the presence of 3×10^-5 M 5-HT. B/F separation was performed through GF/B filter treated with 0.1% polyethyleneimine, using a cell harvester. Washing was performed once.

The target in the next assay is T3, Dopamine D2 receptor (Rattus norvegicus, UniProt P61169).
T3 construct: The rat striatum was homogenized in 50 mM Tris hydrochloride buffer; from tissue; host or cells: rat striatal membranes
T3 sequence (P61169 whole entry): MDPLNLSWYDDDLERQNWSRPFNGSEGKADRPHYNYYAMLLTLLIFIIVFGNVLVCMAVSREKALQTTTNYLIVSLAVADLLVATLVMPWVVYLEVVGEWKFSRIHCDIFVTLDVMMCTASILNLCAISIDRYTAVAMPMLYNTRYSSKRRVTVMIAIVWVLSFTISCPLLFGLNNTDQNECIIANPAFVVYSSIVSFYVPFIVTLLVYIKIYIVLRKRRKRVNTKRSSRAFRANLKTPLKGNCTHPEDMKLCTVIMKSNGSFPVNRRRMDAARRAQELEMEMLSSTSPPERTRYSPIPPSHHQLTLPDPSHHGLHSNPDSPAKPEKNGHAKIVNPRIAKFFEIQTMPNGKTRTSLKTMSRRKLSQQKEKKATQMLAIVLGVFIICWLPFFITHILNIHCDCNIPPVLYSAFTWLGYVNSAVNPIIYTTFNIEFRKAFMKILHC
The experiment in a line: Selectivity for receptors: dopamine D2 receptor, inhibition of [^3 H] raclopride binding to rat striatal membrane. As to conditions: [^3 H] raclopride 1 nM, symbol, no activity in 10 μM, read-out: Dopamine D2 receptor antagonizing action (IC50). How it is done: (§1) The selectivity for receptors of the quinolinecarboxylic acid derivatives of the present invention was examined by the following method.
The affinity to dopamine 2 (D2) receptor was examined according to the method described in MALMBERG, A. et al., Mol Pharmacol., 43, 749-754 (1993).
The affinity for D2 receptor was studied in terms of the inhibition of [^3 H] raclopride (Daiichi Kagaku Yakuhin Co.) binding to rat striatal membrane. The rat striatum was homogenized in 50 mM Tris hydrochloride buffer (pH 7.4) followed by centrifugation at 48,000 G. The pellet was washed once with Tris hydrochloride buffer. Then the pellet was suspended in 50 mM Tris hydrochloride buffer (containing 120 mM NaCl, 5 mM KCl, 2 mM CaCl2, 1 mM MgCl2, pH 7.4) and provided for use as the membrane preparation. The membrane preparation (0.5 mg protein/ml) was reacted with 1 nM [3H] raclopride at 25° C. for 60 minutes. After the reaction, the membrane was caught by a harvester. Non-specific binding was defined as that taken in the presence of 10 μM haloperidol.

Another assay deals with T4, 5-HT3 receptor (Rattus norvegicus, UniProt P35563).
T4 construct: The rat cerebral cortex was homogenized in 50 mM Tris hydrochloride buffer; from tissue; host or cells: rat cerebral cortex membranes
T4 sequence (P35563 24-483): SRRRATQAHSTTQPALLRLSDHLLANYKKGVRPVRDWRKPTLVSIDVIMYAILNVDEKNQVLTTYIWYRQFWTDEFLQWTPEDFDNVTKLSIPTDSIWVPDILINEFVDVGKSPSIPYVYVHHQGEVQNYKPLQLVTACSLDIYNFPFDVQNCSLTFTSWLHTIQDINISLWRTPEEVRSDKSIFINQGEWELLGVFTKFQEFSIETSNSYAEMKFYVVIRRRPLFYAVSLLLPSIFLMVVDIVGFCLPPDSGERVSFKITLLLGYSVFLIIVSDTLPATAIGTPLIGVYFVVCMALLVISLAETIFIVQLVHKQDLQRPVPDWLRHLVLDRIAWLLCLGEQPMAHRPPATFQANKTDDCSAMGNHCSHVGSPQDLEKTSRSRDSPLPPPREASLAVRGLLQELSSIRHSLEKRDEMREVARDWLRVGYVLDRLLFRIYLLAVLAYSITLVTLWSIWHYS
The experiment in a line: Selectivity for receptors: 5-HT3 receptor, inhibition of [^3 H]GR65630 binding to rat cerebral cortex membrane. Conditions: [^3 H]GR65630 0.2 nM, read-out: 5-HT3 receptor antagonizing action (IC50). How it is done:
as §1
The affinity for serotonin 3 receptor was examined by the method described in […], G. J. et al., Nature (London), 330, 746-748 (1987).
The affinity to serotonin 3 (5-HT3) was examined in terms of inhibition of [^3 H]GR65630 binding (Daiichi Kagaku Yakuhin Co.) binding to rat cerebral cortex membrane. The rat cerebral cortex was homogenized in 50 mM Tris hydrochloride buffer (pH 7.4) followed by centrifugation at 48,000 G. The precipitates were washed once with Tris hydrochloride buffer. Then the precipitates were suspended in 50 mM Tris hydrochloride buffer and provided for use as the membrane preparation. The membrane preparation was reacted with 0.2 nM [^3 H]GR65630 at 37° C. for 30 minutes. After the reaction, the membrane was caught by a harvester. Non-specific binding was defined as the binding taken in the presence of 1 μM zacopride.

The target of a further assay is T5, 5-HT1A receptor (Rattus norvegicus, UniProt P19327).
T5 construct: The rat cerebral cortex was homogenized in 50 mM Tris hydrochloride buffer; from tissue; host or cells: rat cerebral cortex membranes
T5 sequence (P19327 1-422): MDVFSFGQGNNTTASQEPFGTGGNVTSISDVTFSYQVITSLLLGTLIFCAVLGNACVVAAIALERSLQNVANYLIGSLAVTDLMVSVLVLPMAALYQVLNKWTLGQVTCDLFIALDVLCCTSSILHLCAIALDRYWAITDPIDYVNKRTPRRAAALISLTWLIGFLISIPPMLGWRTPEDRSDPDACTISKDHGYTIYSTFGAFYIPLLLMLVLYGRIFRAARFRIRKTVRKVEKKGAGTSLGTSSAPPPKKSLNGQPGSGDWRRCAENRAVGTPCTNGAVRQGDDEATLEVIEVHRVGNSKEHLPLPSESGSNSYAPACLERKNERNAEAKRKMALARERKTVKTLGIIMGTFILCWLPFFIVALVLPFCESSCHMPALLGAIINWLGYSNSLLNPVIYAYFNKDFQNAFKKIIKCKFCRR
The experiment in a line: Selectivity for receptors: 5-HT1A receptor, inhibition of [^3 H] 8-OH-DPAT binding to rat cerebral cortex membrane. How it is done: as §1
The affinity to serotonin 1A (5-HT1A) receptor was examined by the method described in […], J. R. et al., Biochem. Pharmacol., 12, 1943-1949 (1986).
The affinity to serotonin 1A (5-HT1A) was examined in terms of inhibition of [^3 H] 8-OH-DPAT (Daiichi Kagaku Yakuhin Co.) binding to rat cerebral cortex membrane. The rat cerebral cortex was homogenized in 50 mM Tris hydrochloride buffer (pH 7.4) followed by centrifugation at 48,000 G.
The pellet was washed once with Tris hydrochloride buffer. Then the pellet was suspended in 50 mM Tris hydrochloride buffer (supplemented with 0.01 mM pargyline and 0.1% ascorbic acid, pH 7.7) and provided for use as the membrane preparation. The membrane specimen was reacted with 1 nM [^3 H] 8-OH-DPAT at 37° C. for 15 minutes. After the reaction, the membrane was caught by a harvester. Non-specific binding was defined as that taken in the presence of 10 μM 5-HT.

Assay [2] relates to gastrointestinal motor function. Conditions: TALLEY, N. J., 1992; cited from earlier work.
Where [3] appears, read: [^3 H] 8-OH-DPAT 1 nM, rat cerebral cortex membrane, symbol, no activity in 10 μM, read-out: 5-HT1A receptor antagonizing action (IC50).

Structures are written as SMILES. Structures can show the parent of a compound that is named as a salt. Where two headings read alike, the source gives them in different places.

T1 sequence (O70528 whole entry): as the sequence (O70528 whole entry) above

With `CC(C)n1c(=O)c(C(=O)NC2CC3CCC(C2)N3CCCO)cc2ccccc21` (stereo not drawn) [Compound 5, Endo-N-(8-(3-hydroxypropyl)-8-azabicyclo[3.2.1]oct-3-yl)-1-isopropyl-2-oxo-1,2-dihydro-3-quinolinecarboxamide], a half-maximal effect in assay [1] (EC50) was put at 32 nM. The concentration for half-maximal inhibition (IC50) (commonly the concentration at which inhibition is half-maximal) is 42.2 ± 6.29 nM on 5-HT4 receptor, above 10000 nM on Dopamine D2 receptor, 977 nM on 5-HT3 receptor and above 10000 nM at 5-HT1A receptor (setting [3]).
For the compound `COCCN1[C@@H]2CC[C@H]1C[C@@H](NC(=O)c1cc3ccccc3n(C(C)C)c1=O)C2` [Compound 10, endo-N-(8-(2-methoxyethyl)-8-azabicyclo[3.2.1]oct-3-yl)-1-isopropyl-2-oxo-1,2-dihydro-3-quinolinecarboxamide hydrochloride], the concentration giving a half-maximal response (EC50) (commonly the concentration needed to bring the measured effect to its halfway point) in assay [1] was 15 nM. For the same compound, the IC50 at 5-HT4 receptor is 78.5 ± 14.6 nM; on Dopamine D2 receptor it was above 10000 nM; at 5-HT3 receptor, 811 nM; at 5-HT1A receptor (setting [3]), above 10000 nM.
In assay [1], `CC(C)n1c(=O)c(C(=O)N[C@H]2C[C@H]3CC[C@@H](C2)N3CCN2CCOCC2)cc2ccccc21` [Compound 20, endo-N-(8-(2-morpholinoethyl)-8-azabicyclo[3.2.1]oct-3-yl)-1-isopropyl-2-oxo-1,2-dihydro-3-quinolinecarboxamide] came in with an EC50 of 25.5 nM. Also, the IC50 is 78.1 ± 14.5 nM at 5-HT4 receptor, above 10000 nM on Dopamine D2 receptor, 509 nM on 5-HT3 receptor and above 10000 nM on 5-HT1A receptor (setting [3]).
Consider `COc1cc(N)c(Cl)cc1C(=O)NC1CCN2CCCC1C2` (centres unmarked) [renzapride], for which the “effect on gastrointestinal motor function and conditions” value in assay [2] was “accelerate the gastrointestinal motor function and improve the gastrointestinal conditions”.
As to `CCOCCN1C2CCC1CC(NC(=O)c1cc3ccccc3n(C(C)C)c1=O)C2` (stereo not drawn) [Compound 11, Endo-N-(8-(2-ethoxyethyl)-8-azabicyclo[3.2.1]oct-3-yl)-1-isopropyl-2-oxo-1,2-dihydro-3-quinolinecarboxamide], the EC50 in assay [1] came to 18.7 nM. Besides, the IC50 was 68.7 ± 7.32 nM on 5-HT4 receptor, above 10000 nM on Dopamine D2 receptor, 423 nM on 5-HT3 receptor and above 10000 nM on 5-HT1A receptor (setting [3]).
At 5-HT1A receptor, `COc1cc(N)c(Cl)cc1C(=O)N[C@@H]1CCN(CCCOc2ccc(F)cc2)C[C@@H]1OC` (relative stereo) [Comparative Compound 1, Cisapride, reference compound] registered a half-maximal inhibitory concentration (IC50) of 64.7 nM. Further, the “effect on gastrointestinal motor function and conditions” value in assay [2] was “accelerate the gastrointestinal motor function and improve the gastrointestinal conditions”.
